Patent US12410147B2, “Surfactants” (Imperial College Innovations Limited, priority 2020, dated 2025)

Key:
[1] = Solubility study in water (ISO standard 6839); type: physicochemical; details: for solubility in water (concentration solubilized): room temperature
Protocol: 10 ml of solution was poured into a 20 ml vial and allowed to cool until precipitation was observed. Other 10 ml of solution was poured into a 20 ml vial and kept at a higher temperature. The precipitated sample was slowly heated and the clear sample was slowly cooled. The temperature at which an appearance change occurred was considered the temperature of solubility at a specific surfactant concentration.

zein protein = assay: Zein solubilisation study; details: 2 g zein, 40 ml of 0.5 wt % surfactant solution, 40° C., 12 h
Protocol: The applicability of surfactants in personal care products was studied by analysing their capacity to solubilise zein protein. In each test 2 g of zein protein was mixed with 40 ml of 0.5 wt % surfactant solution and the mixture was incubated at 40° C. for 12 h. The mixture was then centrifuged and the remaining solid zein was washed with 50 mL of water 5 times. The solid zein was dried for in an oven at 70° C. for 5 days and weighted. The zein solubilisation was evaluated as percentage of zein that was dissolved into the surfactant solution.

protozoa microorganisms = type: cell-based; details: 30° C., 24 h, OD 440 nm
Protocol: The toxicity of different surfactants was analysed using a Protoxkit supplied by microbiotests quantify the inhibition of growth of protozoa microorganisms in the presence of the surfactants. Using the standard protocol, a dilution series of toxicant was prepared by serial 1:1 dilution with distilled water. 2 mL of each solution is placed in a UV cuvette. An inoculum of Protozoa was diluted to reach an OD of 0.04 at 440 nm then 40 μL of inoculum was added along a solution of 40 μL of nutrients in each dilution vials. The initial OD was measured for each vial and the vial was then incubated at 30° C. for 24 h. Inhibition was measured by the comparing the variation of initial and final OD.

[2] = Resistance to hard water (ISO standard 1063); type: physicochemical; details: for appearance of the solutions in hard water stability tests (in words): all calcium concentrations; for Mean Stability: class from total score according to Table 3; for Total Score: sum of 15 appearance scores, CaCl2 6, 9 and 12 m equivalent Ca/L, five aliquots of 50 mg/ml mother solution
Protocol: These measurements were made according the standard protocol reported in ISO standard 1063. Calcium chloride was used as cation source at concentrations of 6, 9 and 12 m equivalent Ca/L (3.0, 4.5, 6.0 mM). A mother solution of surfactant with 50 mg/ml concentration was prepared in water at 20° C. In a 50 ml falcon-tube, a defined aliquot of mother solution was transferred and diluted up to 50 ml with the calcium solution. Five different aliquots of surfactant mother solution were tested: 5.0, 2.5, 1.2, 0.6 and 0.3 ml. In every test, the appearance of the sample was inspected and assigned a score according to Table 2. The scores of the 15 tests for each surfactant were summed and the final result was expressed as mean stability according to Table 3.
• Opalescent is a solution not clear but which objects can be seen. Cloudy is a solution not clear which objects cannot be seen through.

[3] = Surface tension in octanol-water-surfactant system, drop volume method (ISO 9101 modified); type: physicochemical
Excerpt: The drop volume method was used to calculate the surface tension in the system following the ISO standard 9101 with some modifications. In each experiment a drop of aqueous solution of surfactant was slowly formed in the tip of a needle (d=1.82 mm) submerged in octanol using a syringe connected at a Krüss DSA25 drop shape analyser instrument. The drop formation was allowed to grow as close as possible the maximum volume at which it would detach from the needle. At this point, the drop was left to stabilize for 2 minutes and then was detached from the needle by providing a small amount of additional solution. A photo of the drop leaving the needle was captured using the camera connected to the Krüss DSA25. The diameter of the drop was measured, and the surface tension was calculated using the following equation: […]
Where γ is the surface tension (mN/m), V is the drop volume (cm^3), Δρ is the difference of density between water and octanol (g/cm^3), g is the acceleration due to gravity (cm/s^2), d is the outer diameter of the needle (cm), and f is a correction factor calculated using the following equation: […]
Surface tension at concentration 2 times the CMC in deionised water (prepared using a Milli-Q system (Merck)) are summarized in Table 6. […] In FIG. 2 the drops formation of a water/surfactant solution in octanol have been reported for the SAF-8, SAF-12 and SDBS at a concentration of surfactant double of the CMC. The SAF-8 show the lower surface tension due mostly to the high concentration of surfactant used ([…]).
SAF-8 was evaluated using a concentration 2 times the CMC, while SAF-12 was evaluated at 2, 4 and 8 times the CMC.

[4] = Foaming capacity (ISO 6964 with modifications); type: physicochemical; details: 0.2% surfactant, 50° C., after 5 minutes; for Foam height, hard water: 200 ppm CaCl2
Protocol: Foaming capacity was evaluated following the protocol set out in ISO 6964, with some modifications. In each test, 700 mL of surfactant solution containing 0.2% surfactant was prepared using deionized water or a hard water solution of distilled water with 200 ppm of CaCl2. The solutions were prepared by agitating the components for 60 minutes at 50° C. After 60 minutes, 50 mL of solution was poured in a 1000 mL glass measuring cylinder, which was then placed in a water bath that was heated to 50° C. 600 mL of the surfactant solution was poured into a chromatography column fitted with a stainless-steel needle at the egress. The column was placed over the measuring cylinder so that the tip of the needle was […] from the surfactant solution in the measuring cylinder. 450 mL of surfactant solution were poured from the column into the measuring cylinder. After pouring the solution, foam height was measured at 30 sec, 3 min, 5 min and 15 min.

[5] = Critical micelle concentration, air-water-surfactant system, pendant drop method; type: physicochemical; details: 25° C., deionised water
Protocol: Concentrations that were evaluated for each surfactant varied depending on the solubility of the surfactant and the surface tension reduction observed during the analysis. The experiment was performed at 25° C. Deionised water (prepared using a Milli-Q system (Merck)) was used for each experiment. The pendant drop method was used to calculate the surface tension by using a Krüss DSA25. A drop of the solution was produced in the tip of a blunt metal needle (1.25 mm) until the drop reached its maximum size. After 10-15 seconds of equilibration, an image of the drop was captured using a digital camera. The drop was analyzed using the software Krüss EasyDrop Standard-Drop Shape Analysis (DSA1) v 1.92. The software uses the Young-Laplace equation to calculate the surface tension according to the drop deformation considering the effect of gravity and hydrostatic pressure. Critical micellar concentration (CMC) was obtained after plotting surface tension vs surfactant concentration. The CMC is calculated as the surfactant concentration where the initial straight line intersects the plateau in the graph.

[6] = system: E. coli in expressing the b-galactosidase; type: cell-based; details: 37° C., 30 min, OD 600 nm
Protocol: The toxicity of different surfactants was analysed using a Toxi-Chromo test kit supplied by EBPI to quantify the inhibition of E. coli in expressing the b-galactosidase in the presence of the surfactants. Using the standard protocol, a mother solution containing 1000 ppm of a surfactant was prepared. The bacteria inoculum was mixed with a reaction mixture, nutrients supplied with the kit and the toxicant. A further 15 samples at containing different amounts of the surfactant were prepared in the well plate through subsequent dilutions. The chromogen supplied with the kit was added in each well and the well plate was then incubated at 37° C. for 30 min. The optical density (OD) was read at 600 nm using a plate reader. The % inhibition was measured by the OD variation (which is associated a blue colour development). EC50 was measured by plotting and fitting the % inhibition and surfactant concentration.

[7] = surfactant concentration 12.5 % weight in water
[8] = surfactant concentration 15 % weight in water
[9] = surfactant concentration 17.5 % weight in water
[10] = surfactant concentration 20 % weight in water
[11] = surfactant concentration 22.5 % weight in water
[12] = deionised water in octanol, concentration 2 times the CMC
[13] = hard water (500 ppm CaCl2) in octanol, 2 times the CMC

CCCCCCCCOC(=O)c1ccc(S(=O)(=O)O)o1 [SAF-8, Sulfonated Octyl Furoate]
solubility in water (concentration solubilized) [1]: up to 140% | temperature at which dissolution was observed [1, 7]: <0 °C | temperature at which dissolution was observed [1, 8]: <0 °C | temperature at which dissolution was observed [1, 9]: <0 °C | temperature at which dissolution was observed [1, 10]: <0 °C | temperature at which dissolution was observed [1, 11]: <0 °C | % of zein dissolved (zein protein): 10.4 ± 0.98% | EC50, inhibition of growth of protozoa microorganisms (protozoa microorganisms): 673 ± 10 ppm | appearance of the solutions in hard water stability tests (in words) [2]: remained clear | Mean Stability [2]: 5 (75) | Total Score [2]: 75 | Surface tension [3, 12]: 2.65 mN/m | Surface tension [3, 13]: 1.91 ± 0.25 mN/m | Foam height, hard water [4]: 5 ± 0.5 mm | Foam height, distilled water [4]: 2.5 ± 0.7 mm | CMC [5]: 1330 ppm | EC50, inhibition of E. coli in expressing the b-galactosidase [6]: 292 ± 13 ppm

CCCCCCCCCCCCOC(=O)c1ccc(S(=O)(=O)O)o1 [SAF-12, Sulfonated Dodecyl Furoate]
temperature below which the surfactant would precipitate ([1]; 20% solution): below 20 °C | solubility in water (concentration soluble) ([1]; 24° C.): 20% | temperature at which dissolution was observed [1, 7]: 20-25 °C | temperature at which dissolution was observed [1, 8]: 20-25 °C | temperature at which dissolution was observed [1, 9]: 20-25 °C | temperature at which dissolution was observed [1, 10]: 20-25 °C | temperature at which dissolution was observed [1, 11]: <0 °C | % of zein dissolved (zein protein): 15.3 ± 0.26% | EC50, inhibition of growth of protozoa microorganisms (protozoa microorganisms): 49.65 ± 5 ppm | appearance of the solutions in hard water stability tests (in words) [2]: remained clear | Mean Stability [2]: 5 (75) | Total Score [2]: 75 | Surface tension [3, 12]: 3.42 mN/m | Surface tension [3, 13]: 4.51 ± 0.5 mN/m | Surface tension ([3]; hard water (500 ppm CaCl2) in octanol, 4 times the CMC): 3.78 ± 0.45 mN/m | Surface tension ([3]; hard water (500 ppm CaCl2) in octanol, 8 times the CMC): 1.99 ± 0.27 mN/m | Foam height, hard water [4]: 10.35 ± 0.5 mm | Foam height, distilled water [4]: 7.8 ± 0.4 mm | CMC [5]: 521 ppm | EC50, inhibition of E. coli in expressing the b-galactosidase [6]: 63.5 ± 2.8 ppm

CCCCCCCCCCCCCCCCOC(=O)c1ccc(S(=O)(=O)O)o1 [SAF-16, Sulfonated Hexadecyl Furoate]
solubility in water (in words) ([1]; comparison of surfactants): very low solubility | solubility in water (concentration solubilized) [1]: 0.05% | temperature at which dissolution was observed [1, 7]: >50 °C | temperature at which dissolution was observed [1, 8]: >50 °C | temperature at which dissolution was observed [1, 9]: >50 °C | temperature at which dissolution was observed [1, 10]: >50 °C | temperature at which dissolution was observed [1, 11]: >50 °C | CMC [5]: 60 ppm

CCCCCCCCCCCCOS(=O)(=O)[O-].[Na+] [SDS, sodium dodecyl sulfate, reference compound]
EC50, inhibition of growth of protozoa microorganisms (protozoa microorganisms): 85.71 ± 3.8 ppm | appearance of the solutions in hard water stability tests (in words) [2]: extensive precipitation in many tests | Mean Stability [2]: 2 (19-37) | Total Score [2]: 21 | Surface tension [3, 12]: 1.34 ± 0.28 mN/m | behaviour in hard water (in words) ([3]; hard water (500 ppm CaCl2)): significant agglomeration | Foam height, hard water [4]: 4.25 ± 0.4 mm | Foam height, distilled water [4]: 7.25 ± 0.4 mm | EC50, inhibition of E. coli in expressing the b-galactosidase [6]: 123.7 ± 5.2 ppm
